Laboratory results: ChEMBL document CHEMBL3885881, “DrugMatrix”

Species on record: Rattus norvegicus
Assay: DrugMatrix - Regimen: Daily Repeat
Type: toxicity, organism-based, Sprague-Dawley
Design: regimen Daily Repeat, gender Male, age 6-8 weeks
Conditions: in vivo, sc, route subcutaneous, […]; for ABSOLUTE BASOPHIL / ABSOLUTE EOSINOPHIL / ABSOLUTE LYMPHOCYTE / ABSOLUTE MONOCYTE / ABSOLUTE SEGMENTED NEUTROPHIL / BASOPHIL / EOSINOPHIL / ERYTHROCYTE COUNT / HEMATOCRIT / HEMOGLOBIN / LEUKOCYTE COUNT / LYMPHOCYTE / MEAN CORPUSCULAR HEMOGLOBIN / MEAN CORPUSCULAR HEMOGLOBIN CONCENTRATION / MEAN CORPUSCULAR VOLUME / MONOCYTE / NEUTROPHIL / NUCLEATED RED BLOOD CELLS / PLATELET COUNT: tissue Blood; for ALANINE AMINOTRANSFERASE / ALBUMIN / ALKALINE PHOSPHATASE / ASPARTATE AMINOTRANSFERASE / BLOOD UREA NITROGEN / CARBON DIOXIDE / CHLORIDE / CHOLESTEROL / CREATINE PHOSPHOKINASE / CREATININE / GLUCOSE / LACTATE DEHYDROGENASE / LIPASE / PHOSPHORUS / POTASSIUM / SODIUM / TOTAL BILIRUBIN / TOTAL PROTEIN / URIC ACID: tissue Plasma
[1] = 27 mg/kg, 120 h, dose level Low, time 5 day
[2] = 1200 mg/kg, 72 h, dose level High, time 3 day
[3] = 1200 mg/kg, 120 h, dose level High, time 5 day

## Clc1ccc(CSC(Cn2ccnc2)c2ccc(Cl)cc2Cl)cc1 (centres undefined) [SULCONAZOLE]
[1]
  ABSOLUTE BASOPHIL: 0 CELLS/uL
  ABSOLUTE EOSINOPHIL: 176 CELLS/uL
  ABSOLUTE LYMPHOCYTE: 10589.67 CELLS/uL
  ABSOLUTE MONOCYTE: 178.33 CELLS/uL
  ABSOLUTE SEGMENTED NEUTROPHIL: 2489.33 CELLS/uL
  BASOPHIL: 0%
  EOSINOPHIL: 1.33%
  ERYTHROCYTE COUNT: 5.26 x10E6/uL
  HEMATOCRIT: 33.93%
  HEMOGLOBIN: 13 G/DL
  LEUKOCYTE COUNT: 13.43 x10E3/uL
  LYMPHOCYTE: 78.33%
  MEAN CORPUSCULAR HEMOGLOBIN: 24.73 pg
  MEAN CORPUSCULAR HEMOGLOBIN CONCENTRATION: 38.3 G/DL
  MEAN CORPUSCULAR VOLUME: 64.6 fL
  MONOCYTE: 1.33%
  NEUTROPHIL: 19%
  NUCLEATED RED BLOOD CELLS: 0 /100WBC
  PLATELET COUNT: 1332 x10E3/uL
  ALANINE AMINOTRANSFERASE: 56 u/L
  ALBUMIN: 3.9 G/DL
  ALKALINE PHOSPHATASE: 279.67 u/L
  ASPARTATE AMINOTRANSFERASE: 81.67 u/L
  BLOOD UREA NITROGEN: 17 mg/dL
  CARBON DIOXIDE: 25.33 mmol/L
  CHLORIDE: 105.67 MEQ/L
  CHOLESTEROL: 64.67 mg/dL
  CREATINE PHOSPHOKINASE: 435.33 u/L
  CREATININE: 0.16 mg/dL
  GLUCOSE: 162.33 mg/dL
  LACTATE DEHYDROGENASE: 119.67 u/L
  LIPASE: 7.33 u/L
  PHOSPHORUS: 14.4 mg/dL
  POTASSIUM: 6.46 MEQ/L
  SODIUM: 145.43 MEQ/L
  TOTAL BILIRUBIN: 0.17 mg/dL
  TOTAL PROTEIN: 5.9 G/DL
  URIC ACID: 1.63 mg/dL
[2]
  ABSOLUTE BASOPHIL: 0 CELLS/uL
  ABSOLUTE EOSINOPHIL: 83.33 CELLS/uL
  ABSOLUTE LYMPHOCYTE: 7163.33 CELLS/uL
  ABSOLUTE MONOCYTE: 161.33 CELLS/uL
  ABSOLUTE SEGMENTED NEUTROPHIL: 2925.33 CELLS/uL
  BASOPHIL: 0%
  EOSINOPHIL: 1%
  ERYTHROCYTE COUNT: 5.45 x10E6/uL
  HEMATOCRIT: 33.7%
  HEMOGLOBIN: 12.87 G/DL
  LEUKOCYTE COUNT: 10.33 x10E3/uL
  LYMPHOCYTE: 68.33%
  MEAN CORPUSCULAR HEMOGLOBIN: 23.6 pg
  MEAN CORPUSCULAR HEMOGLOBIN CONCENTRATION: 38.2 G/DL
  MEAN CORPUSCULAR VOLUME: 61.83 fL
  MONOCYTE: 1.67%
  NEUTROPHIL: 29%
  NUCLEATED RED BLOOD CELLS: 0 /100WBC
  PLATELET COUNT: 1327 x10E3/uL
  ALANINE AMINOTRANSFERASE: 43 u/L
  ALBUMIN: 3.9 G/DL
  ALKALINE PHOSPHATASE: 294.67 u/L
  ASPARTATE AMINOTRANSFERASE: 79.33 u/L
  BLOOD UREA NITROGEN: 14 mg/dL
  CARBON DIOXIDE: 30 mmol/L
  CHLORIDE: 109 MEQ/L
  CHOLESTEROL: 69.33 mg/dL
  CREATINE PHOSPHOKINASE: 308.33 u/L
  CREATININE: 0.2 mg/dL
  GLUCOSE: 133.67 mg/dL
  LACTATE DEHYDROGENASE: 112.67 u/L
  LIPASE: 8 u/L
  PHOSPHORUS: 10.93 mg/dL
  POTASSIUM: 6.11 MEQ/L
  SODIUM: 149.45 MEQ/L
  TOTAL BILIRUBIN: 0.13 mg/dL
  TOTAL PROTEIN: 6.27 G/DL
  URIC ACID: 0.83 mg/dL
[3]
  ABSOLUTE BASOPHIL: 0 CELLS/uL
  ABSOLUTE EOSINOPHIL: 276.67 CELLS/uL
  ABSOLUTE LYMPHOCYTE: 12157 CELLS/uL
  ABSOLUTE MONOCYTE: 40.67 CELLS/uL
  ABSOLUTE SEGMENTED NEUTROPHIL: 4359 CELLS/uL
  BASOPHIL: 0%
  EOSINOPHIL: 1.67%
  ERYTHROCYTE COUNT: 5.75 x10E6/uL
  HEMATOCRIT: 35.17%
  HEMOGLOBIN: 13.07 G/DL
  LEUKOCYTE COUNT: 16.83 x10E3/uL
  LYMPHOCYTE: 72.33%
  MEAN CORPUSCULAR HEMOGLOBIN: 22.73 pg
  MEAN CORPUSCULAR HEMOGLOBIN CONCENTRATION: 37.2 G/DL
  MEAN CORPUSCULAR VOLUME: 61.23 fL
  MONOCYTE: 0.33%
  NEUTROPHIL: 25.67%
  NUCLEATED RED BLOOD CELLS: 0 /100WBC
  PLATELET COUNT: 1614.33 x10E3/uL
  ALANINE AMINOTRANSFERASE: 39.67 u/L
  ALBUMIN: 3.47 G/DL
  ALKALINE PHOSPHATASE: 268.67 u/L
  ASPARTATE AMINOTRANSFERASE: 76.33 u/L
  BLOOD UREA NITROGEN: 16.67 mg/dL
  CARBON DIOXIDE: 25 mmol/L
  CHLORIDE: 104.33 MEQ/L
  CHOLESTEROL: 59.67 mg/dL
  CREATINE PHOSPHOKINASE: 355 u/L
  CREATININE: 0.23 mg/dL
  GLUCOSE: 160.67 mg/dL
  LACTATE DEHYDROGENASE: 169.33 u/L
  LIPASE: 7.33 u/L
  PHOSPHORUS: 12.67 mg/dL
  POTASSIUM: 6.48 MEQ/L
  SODIUM: 144.93 MEQ/L
  TOTAL BILIRUBIN: 0.13 mg/dL
  TOTAL PROTEIN: 6.1 G/DL
  URIC ACID: 2.87 mg/dL
